Test results taken from patent US20240350464A1, “METHODS OF TREATING NEUROLOGICAL, MUSCULAR, AND PROLIFERATIVE DISORDERS” (Elixira Pharma AG, priority 2023, published 2024).

What was measured:
Assay type in all cases: in vivo, Caenorhabditis elegans
N2 wild type worms [1] = test: Microfluidic reproduction monitoring (egg laying start/end, reproductive span, eggs laid); conditions: for Eggs laid (#): average number of eggs laid per worm within the timespan of egg laying; for Eggs laid (#) / Egg laying end / Reproductive span: concentrations per Table 2; for Egg laying start: time from injection of L4 larvae until first egg, continuous exposure, concentrations per Table 2 (Cpd 1 100 μM, Cpd 2 25 mM); for Egg laying start / Egg laying end / Reproductive span: mean; for Egg laying end: time from injection of L4 larvae until last egg; for Reproductive span: timespan of egg laying; for Variation (%) of egg laying end (time of the last egg laid) / Variation (%) of egg laying start / Variation (%) of eggs laid / Variation (%) of reproductive span (timespan of egg laying): vs negative control DMSO 1%
Protocol: (§1) For the purpose of this study, the two compounds and four combinations of the two compounds were tested on a microfluidic platform. Worms were injected at the L4 larval stage, confined in dedicated microfluidic chambers, and continuously subjected to the presence of the two compounds, alone or in combination, from the L4 larval stage to the end of the experiment (corresponding to the day when the worm is dead). Acquisition of short sequences of videos for each microfluidic chamber containing worms were executed automatically every six (6) hours during the duration of the assay. The measurement of the motility, as well as the worm size to address compound toxicity (1) and the reproduction assessing longevity (2), were performed on the acquired sequences of videos by using an algorithm (3,4). Dead/live worms were identified automatically, based on the motility parameters. Each condition was tested in four technical replicates on different microfluidic cartridges. The experiment was performed once.
(§2) The proposed study was conducted according to the design and timeline depicted in FIG. 1. N2 wild-type C. elegans were grown on solid nematode growth medium (NGM) agar plates until the adult stage and harvested in complete S-Medium. Eggs from the adult population were hatched overnight in S-Medium and the resulting L1 progeny was recovered with a dedicated filter. L1 larvae were then collected through filtering in S-medium, seeded on NGM agar plates and grown for 48 hours (h) at 20° C. […] L4 larvae were then collected through filtering in 5 mL S-medium. 20 to 30 L4 were injected in the microfluidic chips for each condition. Worms were then continuously fed on-chip via bacterial medium, for the duration of the entire experiment. Videos of each micro-chamber were acquired after the feeding during the whole experiment, every 6 hours.
(§3) The two compounds, Compound 1 and Compound 2, were suspended in DMSO at the stock concentration of 100 mM and 2.5 M, respectively (Table 1). Compounds were then mixed with the bacterial medium at the targeted concentrations, alone or in combination (Table 2). For all tested conditions, the final vehicle (DMSO) concentration was 1%. For the negative control condition, nematodes were fed with a bacterial medium containing only the vehicle solution (DMSO 1%). All stock solutions were stored at −20° C. and dilutions were made freshly on the day of starting the on-chip experiment and then every 72 h to replace the compound/bacterial medium solutions.
Five time-resolved phenotypic readouts were extracted during the assays, including: • Worm size (area): this parameter was measured to evaluate the potential effects of the tested compound on growth retardation or larval arrest phenotype (7). • Sexual maturity: this parameter was measured to evaluate the potential effects of the tested compound on the timing required by a worm to reach the sexual maturity, determined by the observation of the first embryo (i.e., egg) produced in each microfluidic chamber.
Bar graphs represent mean+/−sem. p values were obtained by comparing the negative control (blue bars) versus the treatment via One-way ANOVA followed by Bonferroni's multiple comparisons test (p<0.05). * statistics versus the negative control (DMSO 1%).

N2 wild type worms [2] = test: Microfluidic growth monitoring (worm size, area); conditions: for effect on the worm's size (in words): vs negative control; for Variation (%) of worm area AUC: vs negative control DMSO 1%
Protocol: as §1
The proposed study was conducted according to the design and timeline depicted in FIG. 1. N2 wild-type C. elegans were grown on solid nematode growth medium (NGM) agar plates until the adult stage and harvested in complete S-Medium. Eggs from the adult population were hatched overnight in S-Medium and the resulting L1 progeny was recovered with a dedicated filter. L1 larvae were then collected through filtering in S-medium, seeded on NGM agar plates and grown for 48 hours (h) at 20° C. After 48 h, the worm population had reached the L4 larval stage. […]
Five time-resolved phenotypic readouts were extracted during the assays, including: • Worm size (area): this parameter was measured to evaluate the potential effects of the tested compound on growth retardation or larval arrest phenotype (7). • Sexual maturity: this parameter was measured to evaluate the potential effects of the tested compound on the timing required by a worm to reach the sexual maturity, determined by the observation of the first embryo (i.e., egg) produced in each microfluidic chamber. This phenotype was also indicative for a general sterility phenotype (i.e., no egg produced) (7). • Worm fertility: this parameter was measured to evaluate the potential effects of the tested compound on the average number of eggs produced by each worm during the reproductive span, calculated via the images acquired during the assay (7). • Reproductive span: this parameter was measured to evaluate the potential effects of the tested compound on the duration in which the worms have reproductive ability, determined by the observation of the last embryo produced in each microfluidic chamber. • Worm longevity: this parameter was measured to evaluate the potential effects of the tested compound on the worm's survival. […]

N2 wild type worms [3] = test: Microfluidic motility monitoring (head, midbody, tail amplitude, bending frequency, velocity); conditions: vs negative control; for overall motility: all motility parameters improved, in average: all 5 parameters
Protocol: as §1, §2, §3
Worm motility is an additional phenotypic readout, where five parameters of the motility were assessed every 6 hours from acquired videos (2 seconds long, 10 frames per second for each video). At each time point, the values recorded for dead worms were excluded. The five motility parameters monitored included (3): • the amplitude of the movement at the head • the amplitude of the movement at the middle of the worm body • the amplitude of tail movement • the worm bending frequency • the worm velocity
These motility parameters were analyzed by phases (Area Under the Curve calculation following by an 2-way ANOVA tests), as defined below: • Phase 1: from day 1 to day 5 • Phase 2: from day 6 to day 10 • Phase 3: from day 11 to day 15 • Phase 4: from day 16 to day 20

CO[C@H]1C[C@@H]2CC[C@@H](C)[C@@](O)(O2)C(=O)C(=O)N2CCCC[C@H]2C(=O)O[C@H]([C@H](C)C[C@@H]2CC[C@@H](O)[C@H](OC)C2)CC(=O)[C@H](C)/C=C(\C)[C@@H](O)[C@@H](OC)C(=O)[C@H](C)C[C@H](C)/C=C/C=C/C=C/1C [Cpd 1, rapamycin]
Eggs laid (#) (N2 wild type worms [1]): 96.6 #
Egg laying start (N2 wild type worms [1]): 29.59 h
Egg laying end (N2 wild type worms [1]): 144.0 h
Reproductive span (N2 wild type worms [1]): 114.4 h
Variation (%) of egg laying end (time of the last egg laid) (N2 wild type worms [1]): −3.1%
Variation (%) of egg laying start (N2 wild type worms [1]): −3.2%
Variation (%) of eggs laid (N2 wild type worms [1]): −32.9%
Variation (%) of reproductive span (timespan of egg laying) (N2 wild type worms [1]): −3.1%
effect on the worm's size (in words) (N2 wild type worms [2]): significant improvement
Variation (%) of worm area AUC (N2 wild type worms [2]): +0.8%
overall motility: all motility parameters improved, in average (N2 wild type worms [3]): 14%

CN(C)C(=N)N=C(N)N [Cpd 2, metformin]
Eggs laid (#) (N2 wild type worms [1]): 94.9 #
Egg laying start (N2 wild type worms [1]): 29.63 h
Egg laying end (N2 wild type worms [1]): 152.7 h
Reproductive span (N2 wild type worms [1]): 123.1 h
Variation (%) of egg laying end (time of the last egg laid) (N2 wild type worms [1]): +2.8%
Variation (%) of egg laying start (N2 wild type worms [1]): −3.1%
Variation (%) of eggs laid (N2 wild type worms [1]): −34.1%
Variation (%) of reproductive span (timespan of egg laying) (N2 wild type worms [1]): +4.3%
effect on the worm's size (in words) (N2 wild type worms [2]): significant decrease
Variation (%) of worm area AUC (N2 wild type worms [2]): −3.3%
motility in Phase 1 (in words) (N2 wild type worms [3]; Phase 1 (D0 to D5)): significant increase in almost all the motility parameters
motility in Phase 2 (in words) (N2 wild type worms [3]; Phase 2 (D6 to D10)): significant increase in almost all the motility parameters
motility in Phase 3 (in words) (N2 wild type worms [3]; Phase 3 (D11 to D15)): No effect on the motility
motility in Phase 4 (in words) (N2 wild type worms [3]; Phase 4 (D16 to D20)): No effect on the motility
overall motility: all motility parameters improved, in average (N2 wild type worms [3]): 22%
overall motility of the worms (in words) (N2 wild type worms [3]; 2-way ANOVA): significantly increased
